In ChEMBL document CHEMBL4622847, “Synthesis and structure-activity relationships of thieno[2,3-d]pyrimidines as atypical protein kinase C inhibitors to control retinal vascular permeability and cytokine-induced edema” (Bioorg Med Chem, 2020):
Values belong to the compound of their own block, whether it stands above or below them. Active and inactive are the calls of the source. No cut-off for these calls is given here.

Key:
[1] = biological target: T1, Protein kinase C zeta type (Homo sapiens, UniProt Q05513); assay: Inhibition of recombinant full-length human aPKCzeta using CREBtide as substrate incubated for 3 hrs in presence of ATP by Kinase Glo luminescent assay
T1 sequence (Q05513 whole entry): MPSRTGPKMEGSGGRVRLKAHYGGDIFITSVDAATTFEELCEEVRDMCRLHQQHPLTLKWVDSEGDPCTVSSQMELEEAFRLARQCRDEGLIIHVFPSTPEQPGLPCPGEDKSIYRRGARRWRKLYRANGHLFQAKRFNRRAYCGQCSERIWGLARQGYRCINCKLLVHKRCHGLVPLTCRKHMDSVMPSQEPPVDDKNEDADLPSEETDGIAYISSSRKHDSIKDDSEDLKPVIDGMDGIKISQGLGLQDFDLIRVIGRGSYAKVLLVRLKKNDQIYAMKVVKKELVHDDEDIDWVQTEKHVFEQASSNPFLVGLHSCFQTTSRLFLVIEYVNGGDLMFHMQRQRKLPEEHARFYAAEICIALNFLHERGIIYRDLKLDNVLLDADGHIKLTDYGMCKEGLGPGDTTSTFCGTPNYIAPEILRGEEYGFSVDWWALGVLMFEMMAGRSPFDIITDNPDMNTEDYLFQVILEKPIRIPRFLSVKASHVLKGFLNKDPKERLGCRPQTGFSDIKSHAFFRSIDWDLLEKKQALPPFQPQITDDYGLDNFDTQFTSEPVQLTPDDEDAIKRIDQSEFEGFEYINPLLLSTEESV

[2] = Inhibition of VEGF-induced permeability in BREC cells incubated for 2 hrs; type: functional, cell-based, Bos taurus
Bos taurus [3] = species on record: Bos taurus; assay: Inhibition of VEGF-induced permeability in BREC cells at 1 uM incubated for 2 hrs; type: functional, cell-based
Bos taurus [4] = species on record: Bos taurus; assay: Inhibition of VEGF-induced permeability in BREC cells at 3 uM incubated for 2 hrs; type: functional, cell-based
Bos taurus [5] = species on record: Bos taurus; assay: Inhibition of VEGF-induced permeability in BREC cells at 0.01 uM incubated for 2 hrs; type: functional, cell-based
[6] = Cytotoxicity against […] BREC cells at 0.03 to 1 uM; type: cell-based
[7] = biological target: T2, Protein kinase C iota type (Homo sapiens, UniProt P41743); assay: Inhibition of recombinant full-length human aPKCiota using CREBtide as substrate incubated for 3 hrs in presence of ATP by kinase Glo luminescent assay
T2 sequence (P41743 whole entry): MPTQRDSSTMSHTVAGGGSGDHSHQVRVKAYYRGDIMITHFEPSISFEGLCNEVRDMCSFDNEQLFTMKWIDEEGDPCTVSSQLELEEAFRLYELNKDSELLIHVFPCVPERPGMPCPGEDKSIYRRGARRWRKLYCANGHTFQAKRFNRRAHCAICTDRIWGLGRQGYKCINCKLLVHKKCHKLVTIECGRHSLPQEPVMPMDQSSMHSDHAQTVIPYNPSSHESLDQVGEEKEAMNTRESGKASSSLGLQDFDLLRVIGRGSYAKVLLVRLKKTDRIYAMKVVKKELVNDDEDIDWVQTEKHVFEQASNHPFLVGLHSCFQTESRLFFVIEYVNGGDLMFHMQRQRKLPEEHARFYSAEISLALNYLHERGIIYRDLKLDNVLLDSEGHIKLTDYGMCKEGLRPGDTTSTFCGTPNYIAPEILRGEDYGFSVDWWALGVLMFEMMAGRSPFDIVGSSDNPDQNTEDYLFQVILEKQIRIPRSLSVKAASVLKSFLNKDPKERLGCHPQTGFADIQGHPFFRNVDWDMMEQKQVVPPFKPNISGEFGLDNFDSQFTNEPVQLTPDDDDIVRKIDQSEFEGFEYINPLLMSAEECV

[8] = biological target: T1, Protein kinase C zeta type; assay: Inhibition of recombinant full-length human aPKCzeta in presence of ATP at Km concentration by radiometric assay
[9] = biological target: T2, Protein kinase C iota type; assay: Inhibition of recombinant full-length human aPKCiota in presence of ATP at Km concentration by radiometric assay
Bos taurus [10] = species on record: Bos taurus; assay: Inhibition of VEGF-induced permeability in BREC cells at 0.01 to 1.0 uM incubated for 2 hrs; type: functional, cell-based
[11] = biological target: Protein kinase C beta type (Homo sapiens) (UniProt P05771); assay: Inhibition of PKCbeta1 (unknown origin) at 5 uM by radiometric kinase assay
Chain of Protein kinase C beta type (Homo sapiens) (P05771 2-671 limits assumed): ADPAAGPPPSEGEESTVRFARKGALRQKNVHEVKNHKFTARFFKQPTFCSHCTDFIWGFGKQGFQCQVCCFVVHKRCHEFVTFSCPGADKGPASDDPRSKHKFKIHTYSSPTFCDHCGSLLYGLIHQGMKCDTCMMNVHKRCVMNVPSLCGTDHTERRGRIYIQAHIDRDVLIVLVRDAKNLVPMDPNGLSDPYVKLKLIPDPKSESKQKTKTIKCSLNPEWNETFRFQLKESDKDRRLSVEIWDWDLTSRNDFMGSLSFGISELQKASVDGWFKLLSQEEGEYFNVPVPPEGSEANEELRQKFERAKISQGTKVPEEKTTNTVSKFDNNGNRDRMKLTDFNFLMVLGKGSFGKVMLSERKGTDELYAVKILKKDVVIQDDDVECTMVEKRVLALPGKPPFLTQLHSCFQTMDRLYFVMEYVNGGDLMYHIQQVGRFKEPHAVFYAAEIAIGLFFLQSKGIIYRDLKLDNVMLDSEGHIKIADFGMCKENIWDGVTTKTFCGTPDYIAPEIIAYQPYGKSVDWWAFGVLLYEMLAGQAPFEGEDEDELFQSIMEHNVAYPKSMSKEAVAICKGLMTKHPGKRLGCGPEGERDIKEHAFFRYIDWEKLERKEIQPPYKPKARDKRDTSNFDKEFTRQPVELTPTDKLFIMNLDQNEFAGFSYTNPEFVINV

Homo sapiens [12] = species on record: Homo sapiens; assay: Inhibition of PKA (unknown origin) at 5 uM by radiometric kinase assay
[13] = biological target: Rho-associated protein kinase 2 (Homo sapiens) (UniProt O75116); assay: Inhibition of ROCK2 (unknown origin) at 5 uM by radiometric kinase assay
Chain of Rho-associated protein kinase 2 (Homo sapiens) (O75116 whole entry, looked up): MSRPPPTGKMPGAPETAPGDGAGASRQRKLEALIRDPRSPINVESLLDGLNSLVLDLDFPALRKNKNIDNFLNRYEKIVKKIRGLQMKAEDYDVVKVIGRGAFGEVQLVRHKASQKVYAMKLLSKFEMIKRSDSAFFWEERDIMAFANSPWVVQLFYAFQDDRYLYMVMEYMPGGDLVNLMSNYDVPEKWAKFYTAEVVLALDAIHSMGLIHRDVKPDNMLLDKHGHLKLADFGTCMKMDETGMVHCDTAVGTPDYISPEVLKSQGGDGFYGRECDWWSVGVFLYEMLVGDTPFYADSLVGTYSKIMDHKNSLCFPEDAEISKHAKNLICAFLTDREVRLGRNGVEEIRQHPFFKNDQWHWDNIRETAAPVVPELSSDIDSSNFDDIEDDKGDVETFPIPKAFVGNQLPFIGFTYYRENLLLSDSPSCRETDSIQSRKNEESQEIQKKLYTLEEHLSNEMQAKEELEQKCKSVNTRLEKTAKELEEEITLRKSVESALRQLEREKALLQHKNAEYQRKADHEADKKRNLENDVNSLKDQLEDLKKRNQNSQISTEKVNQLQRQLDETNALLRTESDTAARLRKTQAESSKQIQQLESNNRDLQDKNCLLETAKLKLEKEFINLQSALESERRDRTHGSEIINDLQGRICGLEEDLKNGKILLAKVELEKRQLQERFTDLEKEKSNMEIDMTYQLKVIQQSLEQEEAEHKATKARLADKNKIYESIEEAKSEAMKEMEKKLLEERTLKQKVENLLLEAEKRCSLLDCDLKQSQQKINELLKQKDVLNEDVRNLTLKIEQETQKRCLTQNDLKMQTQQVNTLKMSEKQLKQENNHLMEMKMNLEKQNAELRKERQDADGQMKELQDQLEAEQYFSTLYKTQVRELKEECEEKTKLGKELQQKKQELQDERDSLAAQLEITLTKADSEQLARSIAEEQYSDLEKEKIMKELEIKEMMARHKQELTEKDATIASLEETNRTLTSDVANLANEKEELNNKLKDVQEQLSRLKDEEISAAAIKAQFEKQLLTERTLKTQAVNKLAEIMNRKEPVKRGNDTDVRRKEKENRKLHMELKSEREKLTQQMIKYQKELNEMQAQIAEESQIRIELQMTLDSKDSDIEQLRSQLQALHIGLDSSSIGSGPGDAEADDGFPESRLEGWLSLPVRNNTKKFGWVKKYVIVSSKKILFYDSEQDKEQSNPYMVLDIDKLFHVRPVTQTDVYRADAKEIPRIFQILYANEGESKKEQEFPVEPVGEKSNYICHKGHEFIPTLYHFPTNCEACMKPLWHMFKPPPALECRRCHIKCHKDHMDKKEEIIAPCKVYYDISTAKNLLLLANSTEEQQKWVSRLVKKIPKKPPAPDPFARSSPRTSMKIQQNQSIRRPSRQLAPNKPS

[14] = Inhibition of PKA (unknown origin) by radiometric kinase assay; parameters: species or system Homo sapiens
Bos taurus [15] = species on record: Bos taurus; assay: Inhibition of VEGF-induced permeability in BREC cells in presence of Y-27632; type: functional, cell-based
HEK293 [16] = assay: Inhibition of TNFalpha-induced NFkappaB activation in HEK293 cells at 2.5 to 10 uM preincubated for 2 hrs followed by TNFalpha stimulation by luciferase assay; type: cell-based; settings: Homo sapiens
[17] = Inhibition of TNFalpha-induced NFkappaB activation in HEK293 cells preincubated for 2 hrs followed by TNFalpha stimulation by luciferase assay; type: cell-based; settings: Homo sapiens
HEK293 [18] = assay: Cytotoxicity against HEK293 cells assessed as effect on cell survival by WST-1 assay; type: cell-based; settings: human
Rattus norvegicus [19] = assay: Inhibition of VEGF/TNFalpha-induced retinal vascular permeability in Long-Evans rat at 1 or 3 uM administered intravitreally followed by FITC-BSA, iv injection 3 hrs post drug dose and measured after 2 hrs by spectrophotometric method; type: functional, organism-based
Rattus norvegicus [20] = assay: Inhibition of VEGF/TNFalpha-induced retinal vascular permeability in Long-Evans rat at 3 uM administered intravitreally followed by FITC-BSA, iv injection 3 hrs post drug dose and measured after 2 hrs by spectrophotometric method relative to control; type: functional
Rattus norvegicus [21] = assay: Effect on retinal function in overnight dark-adapted Long-Evans rat assessed as A-wave or B-wave amplitude at 3 uM administered intravitreally 3 to 5 hrs prior to exposure to a 0.1 cd.s/m2 to 10 cd.s/m2 test flash by electroretinography; type: ADME, organism-based; settings: in vivo, topical_or_ocular
[22] = Microsomal stability in CD1 mouse liver microsomes assessed as half life at 1 uM in presence of beta-NADPH measured upto 60 mins by LC-MS/MS analysis; type: ADME, Microsome; settings: 1 h
[23] = Cmax in CD1 mouse plasma at 20 mg/kg, po measured up to 24 hrs; type: ADME, organism-based; parameters: dose 20 mg/kg, route oral; settings: in vivo
[24] = Tmax in CD1 mouse plasma at 20 mg/kg, po measured up to 24 hrs; type: ADME, organism-based; settings: in vivo
[25] = AUC in CD1 mouse plasma at 10 mg/kg, iv measured up to 24 hrs; type: ADME, organism-based; parameters: dose 10 mg/kg, time < 24 hr, route intravenous; settings: in vivo
[26] = AUC in CD1 mouse plasma at 20 mg/kg, po measured up to 24 hrs; type: ADME, organism-based; parameters: time < 24 hr, dose 20 mg/kg, route oral; settings: in vivo
[27] = Terminal elimination half life in CD1 mouse plasma at 10 mg/kg, iv measured up to 24 hrs; type: ADME, organism-based; settings: in vivo
[28] = Terminal elimination half life in CD1 mouse plasma at 20 mg/kg, po and measured up to 24 hrs; type: ADME, organism-based; settings: in vivo
[29] = Oral bioavailability in CD1 mouse plasma at 20 mg/kg measured up to 24 hrs; type: ADME, organism-based; settings: in vivo
[30] = Ratio of drug level in CD-1 mouse brain to plasma at 10 mg/kg, iv after 4 hrs by LCMS analysis; type: ADME, organism-based
[31] = Ratio of drug level in CD-1 mouse eye to plasma at 10 mg/kg, iv after 4 hrs by LCMS analysis; type: ADME, organism-based
[32] = Ratio of drug level in CD-1 mouse eye to brain at 10 mg/kg, iv after 4 hrs by LCMS analysis; type: ADME, organism-based; settings: in vivo
[33] = Ratio of drug level in CD-1 mouse eye to brain at 20 mg/kg, po after 4 hrs by LCMS analysis; type: ADME, organism-based; settings: in vivo
Homo sapiens [34] = species on record: Homo sapiens; assay: Selectivity ratio of IC50 for inhibition of recombinant full-length human aPKCzeta using CREBtide as substrate to IC50 for of recombinant full-length human aPKCiota using CREBtide as substrate
[35] = Drug level in iv dosed CD-1 mouse eye after 24 hrs by LCMS analysis; type: ADME, organism-based; settings: read-out: Drug uptake
[36] = biological target: T1, Protein kinase C zeta type; assay: Inhibition of recombinant full-length human aPKCzeta expressed in Sf21 insect cells using 5FAM-ERMRPRKRQGSVRRRV-NH2 as substrate in presence of ATP after 60 mins by IMAP fluorescence polarization analysis

Compound: c1cc(-c2cc(N3CCNCC3)c3c4c(sc3n2)CCCC4)ccn1
IC50 [1]: 1.15 µM
EC50 [2]: Not Active
inhibition (Bos taurus [3]): inactive

Compound: c1cc(-c2nc(N3CCNCC3)c3c4c(sc3n2)CCCC4)ccn1
EC50 [2]: Not Active
inhibition (Bos taurus [5]): inactive
Activity [6]: Toxic
inhibition (Bos taurus [3]): inactive

Compound: c1cc(-c2nc(NCCN3CCNCC3)c3c4c(sc3n2)CCCC4)ccn1
IC50 [1]: 11.1 µM

Compound: NCCN1CCN(c2nc(-c3ccncc3)nc3sc4c(c23)CCCC4)CC1
IC50 [1]: 0.42 µM

Compound: CN1CCN(c2nc(-c3ccncc3)nc3sc4c(c23)CCCC4)CC1
IC50 [36]: 3.7 µM

More lines, main results first:

IC50 [1]: 2.4 µM
EC50 [2]: Not Active
Compound: OC1CCN(c2nc(-c3ccncc3)nc3sc4c(c23)CCCC4)CC1
inhibition (Bos taurus [4]): inactive

EC50 ([2]; read-out: EC50): 0.3 µM
Compound: NC1CCN(c2nc(-c3ccncc3)nc3sc4c(c23)CCCC4)CC1

EC50 ([2]; read-out: EC50): 0.3 µM
Compound: CN(C)C1CCN(c2nc(-c3ccncc3)nc3sc4c(c23)CCCC4)CC1

IC50 [1]: 0.52 µM
EC50 ([2]; read-out: EC50): 0.071 µM
IC50 [7]: 0.07 µM
IC50 [8]: 1.64 µM
IC50 [9]: 4.08 µM
inhibition [11]: Active
inhibition (Homo sapiens [12]): Active
inhibition [13]: Active
IC50 [14]: 0.5 µM
EC50 [17]: 6.65 µM
t1/2 [22]: > 1 h
Cmax [23]: 488 ng/mL
Tmax [24]: 7 h
AUC [25]: 4373 ng·h/mL
AUC [26]: 6762 ng·h/mL
beta t1/2 [27]: 2.77 h
beta t1/2 [28]: 7.83 h
F [29]: 81.7%
Ratio [30]: 2.3
Kp at 4 h [31]: 2.9
Ratio [32]: 1.3
Ratio [33]: 2
Ratio IC50 (Homo sapiens [34]): 7.5
concentration at 24 h [35]: 375 ng/g
Compound: NCC1CCN(c2nc(-c3ccncc3)nc3sc4c(c23)CCCC4)CC1
inhibition (Bos taurus [10]): Active
inhibition (Bos taurus [15]): Active
inhibition (HEK293 [16]): Active
Activity (HEK293 [18]): Non-Toxic
inhibition (Rattus norvegicus [19]): Active
inhibition (INH) (Rattus norvegicus [20]): 100%
Activity (Rattus norvegicus [21]): Non-Toxic
